# Assay results from patent US20030225152A1, “3-(Arylamino)methylene-1, 3-dihydro-2h-indol-2-ones as kinase inhibitors” (priority 2001, published 2003).
# Test system: VEGF induced increases in intracellular calcium levels in HUVEC (human umbilical vein endothelial cells)
# Assay: VEGF Stimulated Ca++ Signal in vitro (FLIPR)
# Type: cell-based
# Details: 10 μM, VEGF 5 ng/mL
# Experimental: VEGF Stimulated Ca^++ Signal in vitro
# Automated FLIPR (Fluorometric Imaging Plate Reader) technology was used to screen for inhibitors of VEGF induced increases in intracellular calcium levels in fluorescent dye loaded endothelial cells. HUVEC (human umbilical vein endothelial cells) (Clonetics) were seeded in 96-well fibronectin coated black-walled plates overnight at 37° C./5%CO2. Cells were loaded with calcium indicator Fluo-4 for 45 minutes at 37° C. Cells were washed 4 times (Original Cell Wash, Labsystems) to remove extracellular dye. Test compounds were reconstituted in 100% DMSO and added to the cells to give a final DMSO concentration of 0.1%. For screening, cells were pre-incubated with test agents for 30 minutes, at a single concentration (10 μM) or at concentrations ranging from 0.01 to 10.0 μM followed by VEGF stimulation (5 ng/mL). Changes in fluorescence at 516 nm were measured simultaneously in all 96 wells using a cooled CCD camera. Data were generated by determining max-min fluorescence levels for unstimulated, stimulated, and drug treated samples. IC50 values for test compounds were calculated from % inhibition of VEGF stimulated responses in the absence of inhibitor.
row,Compound,VEGF Stimulated Ca^++ signal assay % inhibition @ 10 μM
1,"O=C1Nc2ccc(Cl)cc2C1=CNc1ccc2c(c1)OCO2 [Example 68, 3-[(3,4-Metylenedioxyphenylamino)-methylene]-5-chloro-1,3-dihydro-indol-2-one]",−2.50%
2,"CCOC(=O)c1ccc(NC=C2C(=O)Nc3ccccc32)cc1 [Example 8, 4-[(2-Oxo-1,3-dihydro-indol-3-ylididenemethyl)-amino]-benzoic acid ethyl ester]",9%
3,"5-Chloro-3-[(phenylamino)-methylene]-1,3-dihydro-indol-2-one benzothiazol-6-yl-amine [Example 101]",22.00%
4,"CC(=O)NS(=O)(=O)c1ccc(NC=C2C(=O)Nc3ccccc32)cc1 [Example 39, 2-Oxo-1,2-dihydro-indol-3-ylidenemethyl-sulfaacetamide]",−14.50%
5,"O=C1Nc2ccccc2C1=CNc1ccc(Oc2ccccc2)cc1 [Example 41, 3-[(4-Phenoxyamino)-methylene]-1,3-dihydro-indol-2-one]",16.00%
6,"4-[(2-Oxo-1,2-dihydro-indol-3-ylidenemethyl)-amino]-phospate [Example 84]",11.50%
7,"3-[(Bis-trifluoromethyl-phenylamino)-methylene]-1,3-dihydro-indol-2-one [Example 46]",−4.00%
8,"3-[(Fluoro-trifluoromethyl-phenylamino)-methylene]-1,3-dihydro-indol-2-one [Example 47]",−2.50%

# Same assay, conditions: Homo sapiens, 10 μM, VEGF 5 ng/mL
row,Compound,inhibition at 10 µM
1,"Cc1ccc(NC=C2C(=O)Nc3cccc(C)c32)cc1C [Example 95, 3-[(3,4-Dimethyl-phenylamino)-methylene]-4-methyl-1,3-dihydro-indol-2-one]",14%
2,"O=C1Nc2ccccc2C1=CNc1ccc(Cl)cc1F [Example 24, 3-[(4-Chloro-2-fluoro-phenylamino)-methylene]-1,3-dihydro-indol-2-one]",-13.5%
3,"N#CCc1ccc(NC=C2C(=O)Nc3ccccc32)cc1 [Example 30, 3-[(4-Cyanomethylphenylamino)-methylene]-1,3-dihydro-indol-2-one]",39.5%
4,"COc1cc(NC=C2C(=O)Nc3ccc(Cl)cc32)c(OC)cc1Cl [Example 104, 5-Chloro-3-[(4-chloro-2,5-dimethoxy-phenylamino)-methylene]-1,3-dihydro-indol-2-one]",-14.5%
5,"Cc1cc(NC=C2C(=O)Nc3ccc(Cl)cc32)ccc1C(C)C [Example 112, 5-Chloro-3-[(4-i-propyl-3-methylphenylamino)-methylene]-1,3-dihydro-indol-2-one]",10.5%
6,"Cc1cccc2c1C(=CNc1ccc(C(=O)O)c(O)c1)C(=O)N2 [Example 155, 2-Hydroxy-4-[(4-methyl-2-oxo-1,2-dihydro-indol-3-ylidenemethyl)-amino]-benzoic acid]",97.2%
7,"O=C1Nc2ccc(Cl)cc2C1=CNc1ccc(O)c(C(=O)O)c1 [Example 108, 5-(5-Chloro-2-oxo-1,2-dihydro-indol-3-ylidenemethylamino)-2-hydroxybenzoic acid]",-14.5%
8,"Cc1c(F)cccc1NC=C1C(=O)Nc2ccccc21 [Example 11, 3-[(3-Fluoro-2-methyl-phenylamino)-methylene]-1,3-dihydro-indol-2-one]",-14%
9,"Cc1cccc2c1C(=CNc1ccc(C(C)(C)C)cc1)C(=O)N2 [Example 98, 3-[(4-tert-Butyl-phenylamino)-methylene]-4-methyl-1,3-dihydro-indol-2-one]",47.5%
10,"O=C1Nc2ccccc2C1=CNc1ccc(O)c(Cl)c1 [Example 13, 3-[(3-Chloro-4-hydroxy-phenylamino)-methylene]-1,3-dihydro-indol-2-one]",-12.5%
11,"Cc1ccc(NC=C2C(=O)Nc3cccc(C)c32)cc1 [Example 62, 4-Methyl-3-(p-tolylamino-methylene)-1,3-dihydro-indol-2-one]",33%
12,"O=C1Nc2ccccc2C1=CNc1ccc2c(c1)OCO2 [Example 80, 3-[(3,4-Methylenedioxyphenylamino)-methylene]-1,3-dihydro-indol-2-one]",3.5%
13,"O=C1Nc2ccccc2C1=CNc1ccc(C(=O)O)cc1 [Example 86, 4-[(2-Oxo-1,2-dihydro-indol-3-ylidenemethyl)-amino]-benzoic acid]",48.5%
14,"O=C1Nc2ccc(Cl)cc2C1=CNc1ccc(OC(F)(F)F)cc1 [Example 66, 3-[(4-Trifluoromethoxyphenylamino)-methylene]-5-chloro-1,3-dihydro-indol-2-one]",18.5%
15,"Cc1cc(F)ccc1NC=C1C(=O)Nc2ccccc21 [Example 14, 3-[(4-Fluoro-2-methyl-phenylamino)-methylene]-1,3-dihydro-indol-2-one]",-14%
16,"CCOc1ccc(NC=C2C(=O)Nc3ccc(Cl)cc32)cc1 [Example 107, 5-Chloro-3-[(4-ethoxyphenylamino)-methylene]-1,3-dihydro-indol-2-one]",41.5%
17,"O=C1Nc2ccc(Cl)cc2C1=CNc1ccc(OC(F)F)cc1 [Example 64, 3-[(4-Difluoromethoxyphenylamino)-methylene]-5-chloro-1,3-dihydro-indol-2-one]",37%
18,"N#Cc1ccc(NC=C2C(=O)Nc3ccc(Cl)cc32)cc1 [Example 152, 4-[(5-Chloro-2-oxo-1,2-dihydro-indol-3-ylidenemethyl)-amino]-benzonitrile]",18.7%
19,"O=C1Nc2ccc(Cl)cc2C1=CNc1ccc(O)cc1 [Example 77, 3-[(4-Hydroxyphenylamino)-methylene]-5-chloro-1,3-dihydro-indol-2-one]",35%
20,"Cc1cccc2c1C(=CNc1ccc(C(N)=O)cc1)C(=O)N2 [Example 129, 4-[(4-Methyl-2-oxo-1,2-dihydro-indol-3-ylidenemethyl)-amino]-benzamide]",99%
21,"O=C1Nc2ccccc2C1=CNc1ccccc1 [Example 1, 3-Phenylaminomethylene-1,3-dihydro-indol-2-one]",92%
22,"Cc1ccc(NC=C2C(=O)Nc3ccccc32)c(F)c1 [Example 53, 3-[(2-Fluoro-4-methyl-phenylamino)-methylene]-1,3-dihydro-indol-2-one]",2.5%
23,"O=C1Nc2ccccc2C1=CNc1ccc(Cl)c(C(=O)O)c1 [Example 37, 2-Chloro-5-[(2-oxo-1,2-dihydro-indol-3-ylidenemethyl)-amino]-benzoic acid]",-4%
24,"Cc1ccc(NC=C2C(=O)Nc3ccccc32)cc1F [Example 10, 3-[(3-Fluoro-4-methyl-phenylamino)-methylene]-1,3-dihydro-indol-2-one]",46%
25,"COc1ccc(NC=C2C(=O)Nc3ccccc32)cc1C(F)(F)F [Example 55, 3-[(4-Methoxy-3-trifluoromethyl-phenylamino)-methylene]-1,3-dihydro-indol-2-one]",14.5%
26,"O=C1Nc2ccccc2C1=CNc1ccc(OC(F)(F)F)cc1 [Example 51, 3-[(4-Trifluoromethoxy-phenylamino)-methylene]-1,3-dihydro-indol-2-one]",45.5%
27,"COc1cc(NC=C2C(=O)Nc3ccc(Cl)cc32)cc(OC)c1 [Example 75, 3-[(3,5-Dimethoxyphenylamino)-methylene]-5-chloro-1,3-dihydro-indol-2-one]",-18%
28,"O=C1Nc2ccccc2C1CNc1ccc(Br)cc1 (stereo not shown) [Example 3, 3-[(4-Bromo-phenylamino)-methyl]-1,3-dihydro-indol-2-one]",3.5%

# Same assay, conditions: Homo sapiens, 0.01 to 10.0 μM, VEGF 5 ng/mL
row,Compound,IC50
1,"Cc1cccc2c1C(=CNc1ccc(NCCCN3CCN(C)CC3)cc1)C(=O)N2 [Example 303, 4-Methyl-3-({4-[3-(4-methyl-piperazin-1-yl)-propylamino]-phenylamino}-methylene)-1,3-dihydro-indol-2-one]",520 nM
2,"Cc1cccc2c1C(=CNc1ccc(C(=O)O)c(O)c1)C(=O)N2 [Example 155, 2-Hydroxy-4-[(4-methyl-2-oxo-1,2-dihydro-indol-3-ylidenemethyl)-amino]-benzoic acid]",2600 nM
3,"O=C1Nc2ccc(Cl)cc2C1=CNc1ccc(CCCCN2CCOCC2)cc1 [Example 313, 5-Chloro-3-{[4-(4-morpholin-4-yl-butyl)-phenylamino]-methylene}-1,3-dihydro-indol-2-one]",990 nM
4,"CN1CCN(CCCNc2ccc(NC=C3C(=O)Nc4ccccc43)cc2)CC1 [Example 302, 3-({4-[3-(4-Methyl-piperazin-1-yl)-propylamino]-phenylamino}-methylene)-1,3-dihydro-indol-2-one]",710 nM
5,"CN1CCN(CCCNc2ccc(NC=C3C(=O)Nc4cc(F)ccc43)cc2)CC1 [Example 304, 6-Fluoro-3-({4-[3-(4-methyl-piperazin-1-yl)-propylamino]-phenylamino}-methylene)-1,3-dihydro-indol-2-one]",120 nM
6,"Cc1cccc2c1C(=CNc1ccc(C(N)=O)cc1)C(=O)N2 [Example 129, 4-[(4-Methyl-2-oxo-1,2-dihydro-indol-3-ylidenemethyl)-amino]-benzamide]",1270 nM
7,"O=C1Nc2ccccc2C1=CNc1ccccc1 [Example 1, 3-Phenylaminomethylene-1,3-dihydro-indol-2-one]",4050 nM
8,"Cc1ccc(NC=C2C(=O)Nc3ccccc32)cc1F [Example 10, 3-[(3-Fluoro-4-methyl-phenylamino)-methylene]-1,3-dihydro-indol-2-one]",≥ 10000 nM
9,"Cc1cccc2c1C(=CNc1ccc(CCCCN3CCCCC3)cc1)C(=O)N2 [Example 320, 4-Methyl-3-{[4-(4-piperidin-1-yl-butyl)-phenylamino]-methylene}-1,3-dihydro-indol-2-one]",330 nM
10,"Cc1cccc2c1C(=CNc1ccc(CCCCN3CCOCC3)cc1)C(=O)N2 [Example 314, 4-Methyl-3-{[4-(4-morpholin-4-yl-butyl)-phenylamino]-methylene}-1,3-dihydro-indol-2-one]",320 nM
